According to patent publication US8653023B1, “Dual beneficial effect of dopamine enhancing and neuroprotective actions of PKC delta inhibitors for treatment of Parkinson's disease” (Iowa State University Research Foundation, Inc., priority 2006, dated 2014):

How the values were obtained:
PKCα or PKCβ = settings: cited from earlier work
[1] = system: MPTP-treated C57 black mice; test: Locomotor activity of MPTP-treated mice (VersaMax); assay type: in vivo; settings: rottlerin 20 mg/kg + MPTP 30 mg/kg 5 days
From the text: Behavioral data were collected using VersaMax Animal Activity Monitors (AccuScan Model RXYZCM-16, Columbus, Ohio). Each chamber was 40×40×30.5 cm^3, made of clear Plexiglas and covered with a Plexiglas lid with air-holes. Infrared monitoring sensors were located every 2.54 cm along the perimeter (16 infrared beams along each side) and 2.5 cm above the floor. Two additional sets of 16 sensors were located 8.0 cm above the floor on opposite sides. Data were collected and analyzed by a VersaMax Analyzer (AccuScan Model CDA-8, Columbus, Ohio) which in turn sent information to an IBM computer where it was stored for future analyses. Locomotor activity was presented as horizontal movement and vertical movement. All data are expressed as percent of the vehicle-treated control group (mean 6 SEM) and were obtained 1 day after MPTP or vehicle treatment in a 20-min test session.

[2] = system: tyrosine hydroxylase (TH); test: TH phosphorylation in N27 cells (Western blot, immunofluorescence); assay type: cell-based, rat; settings: N27 cells
Method: PC12 cells, differentiated N27 dopaminergic cells and primary mesencephalic neurons were exposed to 1-10 μM rottlerin for the duration of the experiment. DMSO (0.01%) was used as vehicle control. PKCδ-DN- and Lac Z-expressing N27 cells were only treated with 0.01% DMSO. […] Untreated or vehicle treated cells were used as control samples.
Cell and brain lysates containing equal amounts of protein were loaded in each lane and separated on a 10-12% SDS-PAGE gel as described previously (Kaul et al., 2003). After the separation, proteins were transferred to nitrocellulose membrane, and nonspecific binding sites were blocked by treating with 5% nonfat dry milk powder. The membranes were then treated with primary antibodies directed against PKCδ (rabbit polyclonal or mouse monoclonal, 1:2000 dilution), TH (rabbit polyclonal or mouse monoclonal, 1:1000), phospho TH-ser40 (rabbit polyclonal, 1:1000), phospho TH-ser31 TH (rabbit polyclonal, 1:1000), or PP2A (mouse monoclonal, 1:1000). The primary antibody treatments were followed by treatment with secondary HRP-conjugated anti-rabbit or anti-mouse IgG (1:2000) for 1 hr at RT. Secondary antibody-bound proteins were detected using Amersham's ECL chemiluminescence kit. To confirm equal protein loading, blots were reprobed with a β-actin antibody (1:5000 dilution). Western blot images were captured with a Kodak 2000 MM imaging system and data were analyzed using 1D Kodak imaging analysis software.
Immunostaining of PKCδ, TH, Ser40 P-TH and Ser31 P-TH was performed in PC12, N27 and primary mesencephalic neurons. Cells were grown on poly-L-Lysine-coated glass cover slips. After treatment, the cells were fixed with 4% paraformaldehyde and processed for immunohistochemical staining. First, non-specific sites were blocked with 5% normal goat serum containing 0.4% BSA and 0.2% Triton-X 100 in PBS for 20 min. Cells were then incubated with antibodies directed against PKCδ (1:500 dilution), TH (1:500 dilution), and P-THSer40 (1:500 dilution) overnight at 4° C. followed by incubation with either Alexa 488-conjugated (green, 1:1000) or Cy3-conjugated (red, 1:1000) secondary antibody for 1 hr at RT. Secondary antibody treatments were followed by incubation with Hoechst 33342 (10 μg/ml) for 3 min at room temperature to stain the nucleus. Then the coverslips containing stained cells were washed with PBS, mounted on a slide, and viewed under a Nikon inverted fluorescence microscope (Model TE-2000U); images were captured with a SPOT digital camera (Diagnostic Instruments, Sterling Heights, Mich.).

Structure (SMILES): CC(=O)c1c(O)c(C)c(O)c(Cc2c(O)c3c(c(C(=O)/C=C/c4ccccc4)c2O)OC(C)(C)C=C3)c1O [rottlerin]
- fold more potent on PKCδ than on PKCα or PKCβ (PKCα or PKCβ): 5- to 10 fold
- horizontal movement, percent of vehicle-treated control [1]: 76.93%
- vertical movement, percent of vehicle-treated control [1]: 79%
- level of total TH [2]: unaltered
